According to patent publication US11897910B2, “Mito-honokiol compounds and methods of synthesis and use thereof” (The Medical College of Wisconsin, Inc., priority 2015, dated 2024):
Blank lines part the entries; values can stand above or below the compound they belong to.

Experiments:
[1] = system: human MiaPaCa-2 pancreatic cancer cells; assay: Antiproliferative effect on pancreatic cancer cells; type: cell-based
Source text: FIG. 3. Comparison of anti-proliferative effects of honokiol (HNK), mito-honokiol (Mito-HNK) and bis-mito-honokiol (Mito-bis-HNK) on human MiaPaCa-2 pancreatic cancer cells.
FIG. 15A-15F. Effects of mito-honokiol alone or in combination with 2-deoxyglucose on pancreatic cells. […] Further, the combining the mito-honokiols of the present invention with antiglycolytic agents (e.g. 2-deoxyglucose) reduced the rate of proliferation of pancreatic cancer cells than either treatment alone, as shown for a number of different concentrations in FIG. 15C-F.
The inventors also compared the antiproliferative activity of mito-honokiol analogs to honokiol using human MiaPaCa-2 pancreatic cancer cells (FIG. 3).

[2] = biological target: mitochondrial complex I in UACC-62-R cells; assay: Seahorse XF96 bioenergetics (OCR, complex I-mediated respiration, glycolysis); type: cell-based, human
Method: (§1) Melanoma cells harboring BRAF oncogenic mutations use aerobic glycolysis (the Warburg effect) to meet their energy demands. […] One reason for the acquired resistance to PLX4720 is the adaptive change from glycolysis to OXPHOS.
(§2) We used a Seahorse XF96 Analyzer to measure OCR, a readout of mitochondrial respiration, and […], a surrogate marker for glycolysis, in real time. OCR is measured after adding substrates and inhibitors of complexes I-IV. In preliminary studies, Mito-MGN inhibited complex I activity in both WT and resistant cells (FIG. 21F).

[3] = system: mitochondrial complex I in UACC-62-WT cells; assay: as above; type: cell-based, human
Method: as §1, §2

UACC-62-R cells [4] = assay: Melanoma cell proliferation monitored in real time; type: cell-based, human; details: 0.1-0.3 μM, six days
Method: (§3) UACC-62-WT cells (A) or UACC-62-R cells (B) were treated with PLX4720 as indicated. Cell proliferation was monitored in real time with the continuous presence of indicated treatments until the end of each experiment. (C) Representative images shown are the segmentation of phase contrast images (segmentation mask illustrated in black). (D) The cell confluence (as control groups reach 95% confluency) is plotted against concentration of PLX4720 inhibitor. Dashed lines represent the fitting curves used to determine the IC50 values. […] (F) The effect of Mito-MGN (0.2 μM) on mitochondrial complex I and II activities (oxygen consumption rate, OCR) is shown for wild-type (red) and resistant UACC-62 (blue) melanoma cells.
(§4) UACC-62-WT cells (A) or UACC-62-R cells (B) were treated with Mito-MGN as indicated. Cell proliferation was monitored in real time with the continuous presence of indicated treatments until the end of each experiment. (C) Representative images shown are the segmentation of phase contrast images (segmentation mask illustrated in black). (D) The cell confluence (as control groups reach 95% confluency) is plotted against Mito-MGN concentration. Dashed lines represent the fitting curves used to determine the IC50 values.
(§5) To establish PLX4720-resistant melanoma cell line, UACC-62 cells (ATCC) were continuously exposed to increasing concentrations of PLX4720 (1-20 μM) for six months until the logarithmic growth resumed. PLX4720-containing media were replaced twice a week. Resistant cell line (UACC-62R) was maintained in routine culture in the presence of 20 μM PLX4720. FIGS. 21A and 21B show the effect of PLX4720 on proliferation of UACC-62-WT and UACC-62-R cells.
(§6) FIGS. 22A and 22B show the effect of Mito-magnolol on proliferation of UACC-62-WT and UACC-62-R cells. Cell proliferation was monitored in real time for cells incubated continuously under treatment conditions as shown.

UACC-62-WT cells [5] = assay: Melanoma cell proliferation monitored in real time; type: cell-based, human
Method: as §3, §4, §5, §6

UACC-62-R cells [6] = assay: Hydroethidine oxidation products by HPLC; type: cell-based, human; details: 24 h preincubation
Method: (§7) Mito-magnolol stimulates ROS and causes oxidation of mitochondrial antioxidative enzyme in BRAFV600E inhibitor-resistant melanoma cells. UACC-62-WT and UACC-62-R cells were preincubated with Mito-magnolol for 24 h and then treated with hydroethidine. Cell lysates were analyzed by HPLC and the superoxide-specific hydroxylation product (2-OH-E^+) and other two-electron and one-electron oxidation products (E^+ and E^+-E^+) were determined.
(§8) Hydroethidine (HE) was used to measure intracellular O2^⋅− formation. 2-Hydroxyethidium (2-OH-E^+), the diagnostic marker product of O2^⋅−/HE reaction (FIG. 23A) increased in Mito-MGN treated melanoma cells (FIG. 23B). In addition, Mito-MGN induced the iron or peroxidase-dependent oxidation of HE as evidenced by enhanced intracellular formation of E^+-E^+ and E^+ (FIG. 23B).

UACC-62-WT cells [7] = assay: Hydroethidine oxidation products by HPLC; type: cell-based, human; details: 24 h preincubation
Method: as §7, §8

[8] = system: mitochondrial Prx3 in WT melanoma cells; assay: Peroxiredoxin redox status (Western blot); type: cell-based, human; details: cytosolic Prx1 largely unaffected
Source text: (§9) (A) Western blot show the redox status of cytosolic (Prx1) and mitochondrial (Prx3) peroxiredoxins. (B) Quantitative analysis of the extent of Prx1 and Prx3 oxidation. Values are mean±SD, n=3. **, P≤0.01. (C) Scheme showing the pathways controlling the redox state and covalent dimer formation of peroxiredoxins in cells.
(§10) Peroxiredoxins (Prx) are abundant endogenous intracellular thiol peroxidases that act as compartment-specific sensors of hydrogen peroxide (H2O2) in mitochondrial (Prx3) and cytosolic (Prx1) compartments (62-64). Prxs rapidly react with H2O2 (k=10^6-10^7 M^−1 s^−1) (64, 65). Prx3 accounts for nearly 90% of mitochondrial peroxidase activity (64, 66).

[9] = system: mitochondrial Prx3 in resistant melanoma cells; assay: Peroxiredoxin redox status (Western blot); type: cell-based, human; details: cytosolic Prx1 largely unaffected
Source text: as §9, §10

UACC-62 cells = assay: TMRE flow cytometry, mitochondrial depolarization; type: cell-based, human; details: pilot experiments
Source text: (A) Representative TMRE quantification using flow cytometry. (B) Mean fluorescence intensity (MFI) of TMRE in Mito-MGN-treated and vehicle (V)-treated UACC-62-WT cells. Values are mean±SEM, n=3
Not to be bound by any theory, but it is believed that Mito-MGN-induced ROS halts melanoma proliferation through induction of mitophagy. ROS at high μM concentrations have detrimental effects on lipids, proteins, and DNA, whereas at nM concentrations, ROS exerts potent signaling effects (11, 41, 65). We postulate that OXPHOS inhibition by Mito-MGN increases ROS levels, which in turn stimulates mitophagy. To test this hypothesis, we will use an iterative approach to first measure mitochondrial membrane damage, followed by the parallel examination of molecular markers and phagolysome activation needed for mitophagy. Tetramethylrhodamine ethyl ester (TMRE) is retained in metabolically active mitochondria and released into the cytosol and extracellular space of cells with depolarized/damaged mitochondria (67), as illustrated in our recent paper using related mitochondria-targeted agents (12).

UACC-62-WT cells [10] = assay: UACC-62-WT orthotopic melanoma xenograft; type: in vivo, mice; details: 1 mg injected intratumorally in 50 μL
Method: (A) Representative μCT images on day 58 from UACC-62-WT xenographed (T=tumor) mice treated twice a week with vehicle (left) or 1 mg Mito-MGN (right). Data representative of 2 mice per group. (B) Quantification of tumor volume (mm^3) measured using calipers ex vivo on day 58.
The efficacy of Mito-MGN in a murine model of melanoma was tested using cells sensitive and resistant to BRAF inhibitors as tools to probe the anti-tumor effects of targeted OXPHOS inhibitors.

B16.F10 cells = assay: B16.F10 orthotopic melanoma model; type: in vivo, mice
Method: (A) Kaplan-Maier survival curves of B16-F10 engrafted mice treated on days 7, 9, 11, 14, 16, & 18 with Mito-MGN [1 mg] or with α-PD-L1 [250 μg]. (B) Tumor size (mm2) over time. (C) Tumor volume measured on day 19. Values are mean±SD, n=4 mice/group. ***, P≤0.001.
T cells were detected using CD3 immunostaining (brown). Arrowheads highlight CD3+ T cells in melanoma (blue cells). Data representative of 4 separate mice.

[11] = Serum toxicity markers (pilot study); details: three weekly treatment at 5 mg/kg
DMS-273 cells = assay: Cell proliferation assay (IncuCyte); type: cell-based; details: Homo sapiens
Method: (§11) For the cell proliferation assay, cells were seeded onto 96-well tissue culture plates at 2-3,000 cells per well. Twenty-four hours after seeding, treatment group cells were exposed to various concentrations of HNK for 48 hours, and control group cells received fresh medium. The plate was incubated at 37° C. and 5% CO2 and monitored in IncuCyte (Essen Bioscience, Ann Arbor, MI). Data analysis was conducted using IncuCyte […] software. All assays were performed in triplicate. Next, we examined the anticancer effects of Mito-HNK compared to HNK in vitro. Various doses of HNK and Mito-HNK were treated in either H2030-BrM3 or DMS-273 cells, and the antiproliferative effects were monitored with an IncuCyte Live-Cell Imaging Analyzer. […] Furthermore, we examined the anti-invasive effects of Mito-HNK in H2030-BrM3 and DMS-273 cells via a Boyden chamber invasion assay. Both cells were treated with vehicle control (DMSO), HNK (20 μM), and Mito-HNK (0.2 μM) for 36 hours, and invaded cells were determined.

H2030-BrM3 cells = assay: Cell proliferation assay (IncuCyte); type: cell-based; details: Homo sapiens
Method: as §11

[12] = system: H2030-BrM3 and DMS-273 orthotopic lung tumors; assay: Orthotopic lung cancer model; type: in vivo, mice
MiaPaCa-2 cells = assay: Intracellular ATP, combination with 2-deoxyglucose; type: cell-based, human; details: combined with 2-deoxyglucose (2-DG)
Source text: FIG. 4. Synergistic depletion of intracellular ATP in MiaPaCa-2 cells by combination of 2-deoxyglucose (2-DG) and honokiol (HNK) and mito-honokiol (Mito-HNK). The data were obtained on the human pancreatic cancer MiaPaCa-2 cell line. […] In one embodiment, the mito-honokiols of the present invention may be also used in combination with standard-of-care chemotherapeutics or with ionizing radiation to treat resistant cancer cells.

STAT3 phosphorylation = assay: PathScan RTK signaling array; type: cell-based; details: DMS-273 cells; HNK 10 μM and 20 μM, Mito-HNK 0.2 μM, six hours
Method: H2030-BrM3 and DMS-273 cells treated with control DMSO and various doses of HNK and Mito-HNK for four hours were lysed with 200 μl lysis buffer containing proteinase inhibitor cocktails (Cell Signaling Technology, Danvers, MA), sheared 10 times with a 28-gauge needle, spun at 16,000×g for 30 min, and normalized by protein concentration as determined by the Bradford method. Normalized lysate was resolved in a PathScan RTK Signaling Array, and the signaling array was examined by a Li-COR Odyssey infrared imaging system (Li-COR Biosciences-Biotechnology, Lincoln, NE).
For the RTK signaling array, we treated DMS-273 cells with two different doses of HNK (10 μM and 20 μM) and Mito-HNK (0.2 μM) for six hours.

[13] = 1 mg/tumor Mito-MGN or 250 μg anti-PD-L1 antibody

Compound: C=CCc1ccc(O)c(-c2cc(CC=C)ccc2OC[P+](c2ccccc2)(c2ccccc2)c2ccccc2)c1.[Br-] [Mito-MGN]
antiproliferative effects ([1]; 1 μM, FIG. 15B): exhibit antiproliferative effects
IC50 ([2]; read-out: IC50 to inhibit complex I-mediated respiration, 1 h treatment, UACC-62-R): 0.66 µM
OXPHOS (OCR) ([2]; resistant cells): significantly inhibiting OXPHOS
glycolysis (SCAR/PPR) ([2]; resistant cells): minimally affected glycolysis
OXPHOS (OCR) ([3]; WT cells): significantly inhibiting OXPHOS
glycolysis (SCAR/PPR) ([3]; WT cells): minimally affected glycolysis
IC50 ([3]; read-out: IC50 to inhibit complex I-mediated respiration, 1 h treatment, UACC-62-WT): 0.35 µM
sensitivity of proliferation (UACC-62-R cells [4]): exquisitely sensitive
sensitivity of proliferation (UACC-62-WT cells [5]; 0.1-0.3 μM, six days): exquisitely sensitive
HE oxidation products 2-OH-E+, E+ and E+-E+ (UACC-62-R cells [6]): significantly higher amount
HE oxidation products 2-OH-E+, E+ and E+-E+ (UACC-62-WT cells [7]): significantly higher amount
oxidation of mitochondrial Prx3 [8]: stimulated the oxidation of mitochondrial Prx3
oxidation of mitochondrial Prx3 [9]: stimulated the oxidation of mitochondrial Prx3
mitochondrial membrane potential (TMRE) (UACC-62 cells): dose dependently decreases mitochondrial membrane potential
tumor size (μCT in vivo and ex vivo excised tumors) (UACC-62-WT cells [10]): potently reduced tumor size
melanoma growth in vivo (B16.F10 cells; [13]): decreased melanoma growth
survival (B16.F10 cells; [13]): increased survival
T cell levels in excised tumors (CD3 immunostaining) (B16.F10 cells; compared to vehicle control tumors): increased T cell levels
efficiency in abrogating tumor progression and size (B16.F10 cells; compared with anti-PD-L1): equal to anti-PD-L1
BUN ([11]; serum, day 19, Mean ± SE, n = 4-5, ref (12-28)): 24.5 ± 1.9 mg/dL
ALT ([11]; serum, day 19, Mean ± SE, n = 4-5, ref (22-77)): 58.7 ± 12.7 IU/L
AP ([11]; serum, day 19, Mean ± SE, n = 4-5, ref (45-222)): 36.7 ± 10.8 IU/L
liver or kidney toxicity [11]: little liver or kidney toxicity

Compound: C=CCc1ccc(OCCCCCCCCCC[P+](c2ccccc2)(c2ccccc2)c2ccccc2)c(-c2ccc(OCCCCCCCCCC[P+](c3ccccc3)(c3ccccc3)c3ccccc3)c(CC=C)c2)c1 [Bis-Mito-HNK]
antiproliferative potency compared with honokiol ([1]; MiaPaCa-2): more potent than honokiol

IC50 (H2030-BrM3 cells): 27 µM
Compound: C=CCc1ccc(O)c(-c2ccc(O)c(CC=C)c2)c1 [HNK, honokiol]
IC50 (DMS-273 cells): 30 µM
tumor growth ([12]; 7.5 μmol/kg oral gavage five times per week for three weeks): did not significantly reduce tumor growth
observable side effects ([12]; H2030-BrM3 and DMS-273 orthotopic models): did not show any observable side effects
cellular ATP levels (MiaPaCa-2 cells): synergize with 2-deoxyglucose (2-DG) in decreasing cellular ATP levels
STAT3 phosphorylation levels (STAT3 phosphorylation): dramatically decreased

Compound: CCCS(=O)(=O)Nc1ccc(F)c(C(=O)c2c[nH]c3ncc(Cl)cc23)c1F [PLX4720, reference compound]
cells after six days of treatment (phase contrast images) (UACC-62-WT cells [5]; 10 μM, WT versus resistant cells): considerably fewer WT cells compared to resistant cells
